In publication PMC11413854, “Reversible Control of Native GluN2B-Containing NMDA Receptors with Visible Light” (ACS Chemical Neuroscience, 2024):

Test system: cultured cortical neurons at DIV 14
Test: NMDA excitotoxicity test, neuronal survival by MTT
Format: cell-based, mouse
Conditions: for neuronal survival: 5 µM inhibitor + 100 µM NMDA + 10 µM glycine; for % of survival, Mean: compound 5µM with NMDA 100µM, MTT A(540 nm) normalized to control (100) and NMDA alone (0)
Excerpt: We first investigated whether OptoNAM-3 could be used in the context of a patho-physiological process related to GluN1/GluN2B receptors. Overactivation of NMDARs induced by tonic exposure to glutamate or NMDA is well-known to trigger neuronal death.[6] GluN1/GluN2B receptors are thought to be the major player of this neurotoxicity, and GluN1/GluN2B antagonists have proven to be potent neuroprotectants in vitro and in vivo.[5],[15] To test the neuroprotective activity of OptoNAM-3 and its photodependence of action, we performed a protocol of excitotoxicity based on exposure to NMDA (100 μM) of cultured cortical neurons at DIV 14,[15] in the presence of OptoNAM-3. […] OptoNAM-3 in the dark, at a concentration of 5 μM, induced, like ifenprodil, an ∼50% increase in cell survival (Figure S4). […] OptoNAM-3 is therefore able to promote cell survival in neuron cultures in a photodependent manner.
Mice were housed in the IBENS rodent central facility duly accredited by the French Ministry of Agriculture. All experiments were performed in compliance with French and European regulations on care and protection of laboratory animals (EU Directive 2010/63, French Law 2013–118, February 6, 2013), and were approved by local ethics committees and by the French Ministry of Research and Innovation (authorization numbers #05137.02, APAFIS #28867-2020121814485893). Dissociated cultures of cortical neurons were prepared from mouse embryos at E18 as described previously.[84] After removing meninges, cortices were placed in ice-cold HBSS solution. Cell dissociation was performed individually for cortices of each embryo. Cortices were incubated in 2.5% trypsin at 37 °C for 7 min, rinsed three times with 37 °C phosphate buffer saline, and finally suspended in plating medium (Neurobasal Medium, supplemented with 0.5 mM L-glutamine, 1% B27 supplement, and penicillin/streptomycin). The neurons were further dissociated by trituration, and cells were plated on poly-D-lysine coated coverslips in 24-well culture dishes at a density of 3 × 10^5 cells per well for the excitotoxicity test and that of 1 × 10^5 cells per well for patch clamp experiments. Cultures were incubated at 37 °C in a humidified atmosphere of 5% CO2. Cells were fed by changing 1/2 medium to fresh Neurobasal medium every 4 days. For the excitotoxicity experiments, after 5 days in vitro, growth of non-neuronal cells was halted by a 24 h exposure to FDX ([…] 5-fluoro-2′-deoxyuridine). The cultures were used for experiments after 6 to 14 days in vitro (DIV6–8 for patch clamp experiments and DIV14 for excitotoxicity tests).
Excitotoxicity tests were performed 14 days after the culturing step as described in ref[15]. Just before the experiments, the neuronal medium was changed and the neurons incubated in the external patch recording solution (see above). Two replicates of 24 well plates containing cultured cortical neurons were exposed to the same 4 conditions, in which the following compounds were added to the medium: (1) glycine (10 μM) alone (control); (2) glycine (10 μM) + NMDA (100 μM); (3) glycine (10 μM) + NMDA (100 μM) + 5 μM ifenprodil; and (4) glycine (10 μM) + NMDA (100 μM) + 5 μM trans-OptoNAM-3 (dark). One of the two plates was exposed to UV light (Jena analytic US, UVP Hand-held UV lamp UVGL-58, power ∼1 mW) for 2 min. The two plates were then put back in the 37 °C incubator for 10 min. Agonist exposure was terminated by washing out the exposure solution with conditioned Neurobasal medium, prior to returning the dishes to the incubator for 24 h before assessment of neuronal death.
Overall neuronal cell death was determined 24 h after NMDA exposure by the MTT test. Mitochondrial and cytosolic dehydrogenases of living cells reduce the yellow tetrazolium salt (MTT) to produce a purple formazan dye that can be detected spectrophotometrically.[85] […]

c1ccc(/N=N/c2ccc(CCNc3ccncc3)cc2)cc1 [OptoNAM-3, (E)-N-(4-(Phenyldiazenyl)phenethyl)pyridin-4-amine]
neuronal survival (2 min UV (365 nm), normalized to control and NMDA): 35%
neuronal survival (dark, normalized to control (100%) and NMDA (0%)): 50%
% of survival, Mean (Dark): 48.677%
% of survival, Mean (UV): 36.192%
